Source: paper PMC12906330 (SLAS discovery : advancing life sciences R & D, 2025)
Blank lines part the entries; values can stand above or below the compound they belong to.

Legend:
Format in all cases: biochemical
[1] = molecular target: T1, FlgE (flagellar hook protein) (Treponema denticola, UniProt Q9RQB6); assay: ELISA of Lal crosslinking between purified FlgE subunits, dose-response
T1 sequence (Q9RQB6 11-454): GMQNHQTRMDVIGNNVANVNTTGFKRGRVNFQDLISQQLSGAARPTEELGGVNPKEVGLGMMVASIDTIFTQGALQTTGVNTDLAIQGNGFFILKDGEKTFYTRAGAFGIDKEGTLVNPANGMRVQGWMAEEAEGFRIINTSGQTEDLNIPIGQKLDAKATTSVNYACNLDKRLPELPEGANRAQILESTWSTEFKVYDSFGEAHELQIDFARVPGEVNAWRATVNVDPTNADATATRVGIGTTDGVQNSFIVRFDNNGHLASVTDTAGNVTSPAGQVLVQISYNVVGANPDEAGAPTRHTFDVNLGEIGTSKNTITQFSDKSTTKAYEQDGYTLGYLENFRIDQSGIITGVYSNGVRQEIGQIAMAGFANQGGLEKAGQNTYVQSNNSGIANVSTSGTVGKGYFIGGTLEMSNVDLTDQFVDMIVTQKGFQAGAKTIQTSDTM

[2] = molecular target: T1, FlgE (flagellar hook protein); assay: ELISA of Lal crosslinking between purified FlgE subunits
[3] = molecular target: T1, FlgE (flagellar hook protein); assay: ELISA of Lal crosslinking between purified FlgE subunits, dose-response; remark: listed apart in the source

IC50 [1]: 47.7 µM
Structure (SMILES): Oc1c(Cl)cc(Cl)c(Cl)c1Cc1c(O)c(Cl)cc(Cl)c1Cl [hexachlorophene]

IC50 [2]: 118 µM
Structure (SMILES): C=CCc1ccc(O)c(-c2ccc(O)c(CC=C)c2)c1 [honokiol]

IC50 [3]: 92 µM
Structure (SMILES): COc1cc(C(=O)NS(=O)(=O)c2ccccc2C)ccc1Cc1cn(C)c2ccc(NC(=O)OC3CCCC3)cc12 [zafirlukast]
